≈ marks a conversion by molar mass, not a printed value.
How the values were obtained:
[1] = CACO-2 Cell Permeability Assay; assay type: in vitro ADME; conditions: human, Caco-2, pH 7.4, apical to basolateral
Description: Caco-2 cells were diluted to 6.86×10^5 cells/mL with culture medium and 50 μL of cell suspension were dispensed into the filter well of the 96-well HTS Transwell plate. Cells were cultivated for 14˜18 days in a cell culture incubator at 37° C., 5% C02, 95% relative humidity. Cell culture medium was replaced every 2 days, beginning no later than 24 hours after initial plating. 3) After 14˜18 days incubation, the plates were removed from incubator. The inserts were washed twice with pre-warmed HBSS (10 mM HEPES, pH 7.4) and placed into receiver plates. 75 μL and 235 μL of buffer were added to each Transwell inserts and receiver wells, respectively. Then the plates were incubated for 30 min at 37° C. with shaking at 150 rpm. Stock solutions of control compound were prepared in DMSO at 10 mM and then diluted to 1 mM with DMSO followed by further diluting with HBSS (10 mM HEPES, pH 7.4) to get compound working solution. Stock solutions of test compound were prepared in DMSO at 10 mM and then diluted to 1 mM with DMSO followed by further diluting with HBSS (10 mM HEPES, pH 7.4, 4% BSA) to get compound working solution. The final concentration of test compound and control compound was 5 μM. To determine the rate of drug transport in the apical to basolateral direction, 75 μL of compound working solution was added to the filter well (apical compartment) and 235 μL of HBSS (10 mM HEPES, pH 7.4, or 4% BSA) to receiver plate (basolateral compartment). To determine the rate of drug transport in the basolateral to apical direction, 235 μL of compound working solution was added to each well of the receiver plate (basolateral compartment) and 75 μL of HBSS (10 mM HEPES, pH 7.4, or 4% BSA) to filter well (apical compartment). The assay was performed in duplicate. 6) Plates were incubated for 2 hours at 37° C. At the end of the transport period, aliquots of 50 μL were removed directly from the apical and basolateral wells and transferred to wells of new plates. Four volumes of cold Methanol containing internal standards (IS, 100 nM Alprazolam, 200 nM Labetalol and 200 nM Diclofenac) was added into each well. Samples were centrifuged at 3,220 g for 30 minutes. An aliquot of 100 μL of the supernatant mixed with 100 μL of ultra-pure water were used for LC-MS/MS analysis. 7) Solution was discarded from Transwell plates. 100 μL of Lucifer Yellow solution (100 μM in HBSS) and 300 μL of HBSS were added into each well of Transwell insert and receiver, respectively, for leakage determination. Plates were incubated at 37° C. for 30 minutes. 80 μL aliquots from wells of apical and basolateral sides were transferred to solid black plates and the plate was read with Tecan Infinite M 200 (Excitation/Emission wavelength 485 nm/530 nm). The liquid fractions, apical and basolateral layers were analyzed by LC-MS to determine Papp(A-B), Papp(B-A) and recovery.

[2] = Pharmacokinetic Study in Dogs; assay type: in vivo; conditions: male, Beagle; dog, oral gavage 10 mg/kg, 20% HPβCD aq., plasma
Description: Male Beagle dogs (9-14 kg; 2.5 to 5.5 years of age) housed one per cage under standard laboratory conditions were fasted for approximately 16 to 17 hours prior to dosing with food returned approximately 2 hours after dosing. […] Blood samples were collected from the jugular vein (˜1.5 mL) by venipuncture, and stored in tubes treated with K2EDTA, then centrifuged (3000 g, 4° C., 5 min). The plasma samples were transferred and stored at −70° C. until analysis. Bioanalysis: Concentrations for experimental samples and plasma calibration standards were determined by LC/MS/MS (API-5500, reverse-phase chromatography, APCI) following extraction by plasma precipitation with cold acetonitrile (4:1 ACN/plasma by volume) containing verapamil as an internal standard. PK Analysis: The individual animal plasma concentration-time data was analyzed by noncompartmental analysis (linear trapazoidal fitting) using PK Solver software (v2.0).

[3] = Metabolic Clearance Assay in Microsomes (human liver microsomes); assay type: in vitro ADME; conditions: NADPH and UDPGA, read-out: HLM Clint
Description: A master solution was prepared containing 0.5 mg/mL of either rat or human liver microsomes, 5 mM MgCl2, 100 mM phosphate buffer, and 25 ug/mL alamethacin. 40 μL of 10 mM NADPH solution and 40 μL of 20 mM UDPGA solution were added to each well. The final concentrations of NADPH and UDPGA were 1 mM and 2 mM, respectively. The mixture was pre-warmed at 37° C. for 5 minutes. The negative control samples were prepared by replacing NADPH and UDPGA solutions with 80 μL of ultra-pure H2O. The negative control was used to exclude the misleading factor that resulted from instability of chemical itself. This study was performed in duplicate. The reaction was started with the addition of 2 μL of 400 μM control compound or test compound solutions. Diclofenac was used as positive control in this study. The final concentration of test compound or control compound was 2 μM. Aliquots of 50 μL were taken from the reaction solution at 0, 15, 30, 45 and 60 minutes. The reaction was stopped by the addition of 4 volumes of cold acetonitrile (or methanol) with internal standard (IS) (100 nM alprazolam, 200 nM imipramine, 200 nM labetalol and 2 μM ketoprofen) at the designated time points. Samples were centrifuged at 3,220 g for 40 minutes to precipitate protein. Aliquot of 100 μL supernatant diluted by 100 μL of water was used for LC-MS/MS analysis. The in vitro half-life, scale-up intrinsic clearance, and predicted hepatic clearance were calculated according to standard calculations.

[4] = Dissolution Assay in Fasted Simulated Gastric Fluid; assay type: physicochemical; conditions: 37° C., 50 rpm, compressed disc
Description: The dissolution bath was filled with 900 mL of media for testing, the bath temperature held at 37° C., the rotation rate of the apparatus was 50 rpm, the draw point for the sampling probe was set exactly halfway between the surface of the media and the surface of the disc. The test article (0.4 g) was compressed into a disc using a Woods apparatus. The sampling time points were 10, 30, 60, 90, 120, 150 & 180. The samples were analysed by HPLC for concentration against a sample preparation of known concentration (ca. 0.5 mg/ml). Dissolution rate was derived from the curve of concentration against time.

[5] = Kinetic Solubility Determination Assay; assay type: physicochemical; conditions: aqueous buffer, kinetic from dmso stock, PBS pH 7.4, RT, read-out: Kin. Sol. pH 7.4
Description: Stock solutions of test compounds were prepared in DMSO at the concentration of 10 mM. The stock solutions of positive control compound were prepared in DMSO at the concentration of 30 mM. Progesterone was used as positive control in the assay. 30 μL stock solution of each compound was placed in order into their proper 96-well rack, followed by adding 970 μL of PBS at pH 7.4 into each vial of the cap-less solubility sample plate. This study was performed in duplicate. One stir stick was added to each vial and then vials were sealed using a molded PTDE/SIL 96-Well Plate Cover. The Solubility Sample plate was transferred to the Thermomixer Comfort plate shaker and incubated at RT for 2 hours with shaking at 1100 rpm. After 2 hours incubation, stir sticks were removed using a big magnet and all samples from the Solubility Sample plate were transferred into the filter plate. All the samples were filtered by using the vacuum manifold. The filtered samples were diluted with methanol. Standards of each test compound were prepared at 0.3, 0.09 and 0.1 μM concentrations and both the test samples and standards were analyzed by LC-MS and the test samples were quantified against a standard of known concentration in DMSO using mass spectral peak identification and quantitation.

TYK2 = TYK2 (Homo sapiens (Human), UniProt P29597); experiment: 1 mM ATP Tyk2 Caliper Assay; assay type: biochemical; conditions: ATP 1000 uM
Description: Compounds were serially diluted in DMSO then further diluted in 1x kinase buffer: 5 uL of buffer diluted compound was added into wells first, then 10 uL of Tyk2 enzyme mix was added into wells, followed by 10 uL of substrate mix to start reaction. Reaction was incubated at 28° C. for 25 min and then added 25 uL stop buffer. The reaction mixture was read by a Caliper […]. Final concentrations for assay conditions were: 25 mM HEPES, pH 7.5, 0.01% Brij-35, 0.01% Triton, 0.5 mM EGTA, 2 mM DTT, 10 mM MgCl2, TYK2 4 nM, ATP concentration 1000 uM, and P30 3 uM.

[6] = Solid form stability of Compound 1 mesylate forms; assay type: physicochemical; conditions: for solid form stability at ambient conditions: drying / ambient conditions

Chain of TYK2 (P29597 whole entry): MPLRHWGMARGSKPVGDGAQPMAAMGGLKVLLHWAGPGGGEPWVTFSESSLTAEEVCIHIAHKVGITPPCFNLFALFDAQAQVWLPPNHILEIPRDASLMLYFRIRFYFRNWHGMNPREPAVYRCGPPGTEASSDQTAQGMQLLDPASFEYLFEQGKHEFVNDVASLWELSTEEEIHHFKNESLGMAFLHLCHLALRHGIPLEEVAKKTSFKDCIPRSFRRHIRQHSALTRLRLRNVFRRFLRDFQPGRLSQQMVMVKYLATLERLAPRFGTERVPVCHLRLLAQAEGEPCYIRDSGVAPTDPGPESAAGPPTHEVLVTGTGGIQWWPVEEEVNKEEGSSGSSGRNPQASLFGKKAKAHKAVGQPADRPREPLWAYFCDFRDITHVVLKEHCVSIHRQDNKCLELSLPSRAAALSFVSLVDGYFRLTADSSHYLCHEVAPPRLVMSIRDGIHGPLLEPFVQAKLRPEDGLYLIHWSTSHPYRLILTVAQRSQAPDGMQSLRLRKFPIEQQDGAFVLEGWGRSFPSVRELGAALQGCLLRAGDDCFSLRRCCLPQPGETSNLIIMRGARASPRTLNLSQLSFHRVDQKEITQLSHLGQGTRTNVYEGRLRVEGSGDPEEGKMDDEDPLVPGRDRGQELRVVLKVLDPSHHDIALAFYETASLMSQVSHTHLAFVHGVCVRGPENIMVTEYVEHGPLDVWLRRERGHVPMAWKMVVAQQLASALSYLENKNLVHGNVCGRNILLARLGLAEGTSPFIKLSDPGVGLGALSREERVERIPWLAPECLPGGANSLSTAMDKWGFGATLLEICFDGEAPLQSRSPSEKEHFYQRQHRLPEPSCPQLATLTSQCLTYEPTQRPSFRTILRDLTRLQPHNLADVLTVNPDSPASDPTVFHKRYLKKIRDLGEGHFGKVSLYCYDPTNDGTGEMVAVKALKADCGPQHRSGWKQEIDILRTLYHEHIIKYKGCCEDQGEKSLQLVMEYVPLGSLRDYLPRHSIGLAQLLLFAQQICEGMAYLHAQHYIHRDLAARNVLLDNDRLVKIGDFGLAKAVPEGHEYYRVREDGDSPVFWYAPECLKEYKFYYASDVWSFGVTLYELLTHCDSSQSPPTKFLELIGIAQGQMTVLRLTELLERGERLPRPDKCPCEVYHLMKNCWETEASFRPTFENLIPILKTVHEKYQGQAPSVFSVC

SMILES | Papp A→B at 2 h, 5 μM [1] [×10⁻⁶ cm/s] | CLint scaled at 2 μM [3] [mL/min/kg] | solubility kinetic at 2 h [5] [µM] | IC50 (TYK2) [nM] | solid form stability at ambient conditions [6] | solid form stability upon grinding ([6]; grinding) | AUC(0-t) [2] [ng·h/mL] | Cmax [2] [ng/mL] | dissolution rate in Fasted Simulated Gastric Fluid (FaSSGF) [4] [μg/cm^2/min]
O=C1NCc2nc(-c3c(F)cccc3F)cc(Nc3ccc(N4CCCC4)cn3)c21 [Compound 7] | 13.5 | 10.9 | < 0.5 | 390 | – | – | – | – | –
O=C1NCc2nc(-c3c(F)cccc3F)cc(Nc3ccc(N4CCOCC4)cn3)c21 [Compound 8] | 13.1 | 1.2 | 11.9 (≈ 5.05 µg/mL) | 33 | – | – | – | – | –
O=C1NCc2nc(-c3c(F)cccc3F)cc(Nc3ccc(C(=O)N4CCOCC4)cc3)c21 [Compound 9] | 3.43 | 3 | 172 (≈ 77.3 µg/mL) | 134 | – | – | 10200 | 1070 | 21.2
O=C1NCc2nc(-c3c(F)cccc3F)cc(Nc3ccc(C(=O)N4CCOCC4)nc3)c21 [Compound 13] | 2.89 | 1.9 | 252 (≈ 114 µg/mL) | – | – | – | – | – | –
N#Cc1cccc(F)c1-c1cc(Nc2ccc(C(=O)N3CCOCC3)cc2)c2c(n1)CNC2=O [Compound 14] | 2.08 | – | 271 (≈ 124 µg/mL) | 24.2 | – | – | – | – | –
N#Cc1cccc(F)c1-c1cc(Nc2ccc(C(=O)N3CCCC3)cc2)c2c(n1)CNC2=O [Compound 16] | 2.63 | – | 32.9 (≈ 14.5 µg/mL) | 17.7 | – | – | – | – | –
O=C1NCc2nc(-c3c(F)cccc3F)cc(Nc3ccc(C(=O)N4C[C@H]5COC[C@H]5C4)cc3)c21 [Compound 17] | 1.52 | – | 205 (≈ 97.5 µg/mL) | 88.6 | – | – | – | – | –

More lines, main results first:

Papp A→B at 2 h, 5 μM [1] [×10⁻⁶ cm/s] | CLint scaled at 2 μM [3] [mL/min/kg] | solubility kinetic at 2 h [5] [µM] | IC50 (TYK2) [nM] | solid form stability at ambient conditions [6] | solid form stability upon grinding ([6]; grinding) | SMILES | AUC(0-t) [2] [ng·h/mL] | Cmax [2] [ng/mL] | dissolution rate in Fasted Simulated Gastric Fluid (FaSSGF) [4] [μg/cm^2/min]
5.77 | 0.62 | 274 (≈ 119 µg/mL) | – | – | – | O=C1NCc2nc(-c3c(F)cccc3F)cc(Nc3ccc(C(=O)N4CCCC4)cc3)c21 [Compound 1] | 18700 | 2100 | 57.5
4.03 | 7.81 | 1.45 (≈ 0.65 µg/mL) | 90 | – | – | O=C1NCc2nc(-c3c(F)cccc3F)cc(Nc3ccc(C(=O)N4CCCCC4)cc3)c21 [Compound 10] | – | – | –
5.62 | – | 1.86 (≈ 0.812 µg/mL) | 119 | – | – | CCN(CC)C(=O)c1ccc(Nc2cc(-c3c(F)cccc3F)nc3c2C(=O)NC3)cc1 [Compound 11] | – | – | –
0.41 | – | 237 (≈ 113 µg/mL) | 136 | – | – | CC1(O)CCN(C(=O)c2ccc(Nc3cc(-c4c(F)cccc4F)nc4c3C(=O)NC4)cc2)CC1 [Compound 12] | – | – | –
7.59 | 1.78 | 3.75 (≈ 1.58 µg/mL) | 74.1 | – | – | O=C1NCc2nc(-c3c(F)cccc3F)cc(Nc3ccc(C(=O)N4CCC4)cc3)c21 [Compound 15] | – | – | –
– | – | – | – | transition to Form IV | – | CS(=O)(=O)O.O=C1NCc2nc(-c3c(F)cccc3F)cc(Nc3ccc(C(=O)N4CCCC4)cc3)c21 [Form III of Compound 1 mesylate] | – | – | –
– | – | – | – | stable | – | CS(=O)(=O)O.O=C1NCc2nc(-c3c(F)cccc3F)cc(Nc3ccc(C(=O)N4CCCC4)cc3)c21 [Form IV of Compound 1 mesylate] | – | – | –
– | – | – | – | – | transition to Form I | CS(=O)(=O)O.O=C1NCc2nc(-c3c(F)cccc3F)cc(Nc3ccc(C(=O)N4CCCC4)cc3)c21 [Form V of Compound 1 mesylate] | – | – | –

— US10336752B2, “TYK2 inhibitors, uses, and methods for production thereof” (Nimbus Lakshmi, Inc., priority 2017, dated 2019)
